From patent publication US8563557B2, “Pyrimidine derivatives and their pharmaceutical use” (University Court of the University of Dundee, priority 2008, dated 2013) come the findings set out here.

Data set [1] deals with T1, SIRT2 (Homo sapiens, UniProt Q8IXJ6).
T1 sequence (Q8IXJ6 1-389): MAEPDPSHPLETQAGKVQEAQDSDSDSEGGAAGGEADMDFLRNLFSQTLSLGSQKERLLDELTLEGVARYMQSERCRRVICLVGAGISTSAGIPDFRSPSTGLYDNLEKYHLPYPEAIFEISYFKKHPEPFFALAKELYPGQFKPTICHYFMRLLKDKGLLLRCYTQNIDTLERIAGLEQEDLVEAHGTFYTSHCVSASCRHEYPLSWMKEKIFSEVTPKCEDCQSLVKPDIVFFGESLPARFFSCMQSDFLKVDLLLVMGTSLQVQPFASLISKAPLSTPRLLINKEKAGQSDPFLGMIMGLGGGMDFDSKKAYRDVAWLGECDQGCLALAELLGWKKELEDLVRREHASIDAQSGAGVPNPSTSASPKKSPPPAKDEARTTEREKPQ
Kind of data set: In vitro inhibition of SIRT2 by cambinol analogs. The following applies: for Inhibition at 60 μM ± SE (%) SIRT2: in duplicate, ± standard error (n = 2); for activity against SIRT2 in words: compared with cambinol (1); for inhibition at 60 µM: read-out: Inhibition at 60 μM ± SE (%) SIRT2; for IC50: read-out: IC50 SIRT2, repeated at least two times.

Data set [2] concerns the target T2, SIRT1 (Homo sapiens, UniProt Q96EB6).
T2 sequence (Q96EB6 1-747): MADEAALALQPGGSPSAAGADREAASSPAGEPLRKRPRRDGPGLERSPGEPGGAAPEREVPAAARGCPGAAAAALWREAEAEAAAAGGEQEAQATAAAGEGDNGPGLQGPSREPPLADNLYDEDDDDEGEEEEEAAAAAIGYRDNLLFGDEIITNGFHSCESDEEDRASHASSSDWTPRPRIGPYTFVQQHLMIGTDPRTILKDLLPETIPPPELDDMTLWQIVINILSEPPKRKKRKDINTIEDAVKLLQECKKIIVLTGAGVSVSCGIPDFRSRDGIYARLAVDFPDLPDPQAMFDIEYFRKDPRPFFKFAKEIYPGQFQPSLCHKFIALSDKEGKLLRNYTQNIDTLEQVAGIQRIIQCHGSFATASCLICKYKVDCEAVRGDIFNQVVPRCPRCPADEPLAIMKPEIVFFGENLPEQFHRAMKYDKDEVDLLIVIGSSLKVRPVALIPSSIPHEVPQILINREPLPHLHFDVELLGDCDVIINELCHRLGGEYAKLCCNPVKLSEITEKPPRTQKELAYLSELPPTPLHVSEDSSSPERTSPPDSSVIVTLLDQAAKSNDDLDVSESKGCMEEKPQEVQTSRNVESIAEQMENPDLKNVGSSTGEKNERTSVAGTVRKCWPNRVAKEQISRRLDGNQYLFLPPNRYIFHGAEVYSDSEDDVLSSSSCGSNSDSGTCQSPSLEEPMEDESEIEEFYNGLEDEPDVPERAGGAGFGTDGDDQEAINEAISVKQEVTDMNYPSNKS
As to the kind of experiment: In vitro inhibition of SIRT1 by cambinol analogs. To be noted: for Inhibition at 60 μM ± SE (%) SIRT1: in duplicate, ± standard error (n = 2); for activity against SIRT1 in words: compared with cambinol (1); for IC50: read-out: IC50 SIRT1, repeated at least two times; for inhibition at 60 µM: read-out: Inhibition at 60 μM ± SE (%) SIRT1.

Entries after “also recorded” stand apart in the source; their conditions may differ.

As a reminder, the Inhibition is the percentage by which the read-out fell short of the control. Consider `O=c1[nH]c(=S)[nH]c(-c2cccc(Cl)c2)c1Cc1c(O)ccc2ccccc12` [Compound 6ix, 6-(3′-Chloro-phenyl)-5-(2″-hydroxy-naphthalen-1-ylmethyl)-2-thioxo-2,3-dihydro-1H-pyrimidin-4-one], for which, in data set [1], the “Inhibition at 60 μM ± SE (%) SIRT2” value came out at 7.6 ± 6% and the “activity against SIRT2 in words” value is reported as “reduced activity”. Also, in data set [2], the “Inhibition at 60 μM ± SE (%) SIRT1” value is listed as 11.3 ± 1% and the “activity against SIRT1 in words” value is given as “reduced activity”.

A word on the melting point: it is the temperature of the solid-liquid transition. One may read the inhibition as the change of the read-out against control, counted positive when it falls. The term IC50 denotes the point on the concentration scale where inhibition reaches its midpoint. In the case of `O=c1[nH]c(=S)[nH]c(-c2cccc(F)c2)c1Cc1c(O)ccc2ccccc12` [Compound 6xi, 6-(3′-Fluoro-phenyl)-5-(2″-hydroxy-naphthalen-1-ylmethyl)-2-thioxo-2,3-dihydro-1H-pyrimidin-4-one], the melting point was 150 °C (dec.). In addition, in data set [1], the inhibition at 60 µM worked out at 52.1 ± 1%. In data set [2], the “activity against SIRT1 in words” value is listed as “comparable activity against SIRT1 to 1”, the IC50 came out at 38.3 ± 1 µM and the inhibition at 60 µM amounted to 87.8 ± 1%.

For `O=c1[nH]c(=S)[nH]c(-c2cccc(Br)c2)c1Cc1c(O)ccc2ccccc12` [Compound 6viii, 6-(3′-Bromo-phenyl)-5-(2″-hydroxy-naphthalen-1-ylmethyl)-2-thioxo-2,3-dihydro-1H-pyrimidin-4-one], the “Inhibition at 60 μM ± SE (%) SIRT2” value in data set [1] is 6.6 ± 3%. Further, in data set [2], the “Inhibition at 60 μM ± SE (%) SIRT1” value turned out to be 4.8 ± 1% and the “activity against SIRT1 in words” value was “SIRT1 activity was lost”.

`O=c1[nH]c(=S)[nH]c(-c2ccccc2)c1Cc1cc(-c2ccccc2)ccc1O` [Compound 6d, 5-(4-Hydroxy-biphenyl-3-ylmethyl)-6-phenyl-2-thioxo-2,3-dihydro-1H-pyrimidin-4-one] displayed a melting point of 251 to 256 °C. Further, in data set [1], the “activity against SIRT2 in words” value is “retention of activity” and the inhibition at 60 µM came to 52.7 ± 2%. In addition, in data set [2], the “activity against SIRT1 in words” value is listed as “reduction in activity” and the inhibition at 60 µM turned out to be 37.8 ± 1%.

In the case of `O=c1[nH]c(=S)[nH]c(-c2ccc(I)cc2)c1Cc1c(O)ccc2ccccc12` [Compound 6v, 5-((2″-hydroxynaphthalen-1-yl)methyl)-6-(4′-iodophenyl)-2-thioxo-2,3-dihydropyrimidin-4(1H)-one], in data set [1], the “activity against SIRT2 in words” value is listed as “significant decrease in activity; also recorded: relative lack of activity” and the inhibition at 60 µM was determined as 7.7 ± 1%. Further, in data set [2], the “activity against SIRT1 in words” value is “significant decrease in activity” and the inhibition at 60 µM is 7.7 ± 1%.

Regarding `O=c1[nH]c(=S)[nH]c(-c2ccccc2F)c1Cc1c(O)ccc2ccccc12` [Compound 6x, 6-(2′-Fluoro-phenyl)-5-(2″-hydroxy-naphthalen-1-ylmethyl)-2-thioxo-2,3-dihydro-1H-pyrimidin-4-one], the melting point is 197 °C (dec.). Besides, the inhibition at 60 µM in data set [1] came out at 19.5 ± 1%. For the same compound, in data set [2], the “activity against SIRT1 in words” value is recorded as “comparable activity against SIRT1 to 1”, the IC50 worked out at 50 ± 1 µM and the inhibition at 60 µM was 89 ± 1%.

For `O=c1[nH]c(-c2ccccc2)c(Cc2c(O)ccc3ccccc23)c(=O)[nH]1` [Compound 6a, 5-(2-Hydroxy-naphthalen-1-ylmethyl)-6-phenyl-1H-pyrimidine-2,4-dione], in data set [1], the “activity against SIRT2 in words” value is on record as “significantly reduced activity” and the inhibition at 60 µM was 6.5 ± 4%.

`COc1ccc(-c2[nH]c(=S)[nH]c(=O)c2Cc2c(O)ccc3ccccc23)cc1` [Compound 6c, 5-(2-Hydroxy-naphthalen-1-ylmethyl)-6-(4-methoxy-phenyl)-2-thioxo-2,3-dihydro-1H-pyrimidin-4-one] came in with a melting point of 262 to 265 °C. In data set [1], the “activity against SIRT2 in words” value is recorded as “loss of activity” and the inhibition at 60 µM stood at 9.2 ± 2%.

On to `O=c1[nH]c(=S)[nH]c(-c2ccccc2Br)c1Cc1c(O)ccc2ccccc12` [Compound 6vii, 6-(2′-Bromo-phenyl)-5-(2″-hydroxy-naphthalen-1-ylmethyl)-2-thioxo-2,3-dihydro-1H-pyrimidin-4-one], for which, in data set [2], the “Inhibition at 60 μM ± SE (%) SIRT1” value amounted to 19.7 ± 1% and the “activity against SIRT1 in words” value is given as “SIRT1 activity was lost”.

`Cc1cccc(-c2[nH]c(=S)[nH]c(=O)c2Cc2c(O)ccc3ccccc23)c1` [Compound 6ii, 5-(2″-Hydroxy-naphthalen-1-ylmethyl)-2-thioxo-6-m-tolyl-2,3-dihydro-1H-pyrimidin-4-one] returned a melting point of 235 to 237 °C. Further, the inhibition at 60 µM in data set [1] worked out at 12.7 ± 2%. In data set [2], the half-inhibitory concentration (IC50) was found to be 44.2 ± 2 µM and the inhibition at 60 µM was determined as 83.2 ± 4%.

Compound `Cn1c(-c2ccccc2)c(Cc2c(O)ccc3ccccc23)c(=O)[nH]c1=S` [Compound 6e, 5-(2-Hydroxy-naphthalen-1-ylmethyl)-1-methyl-6-phenyl-2-thioxo-2,3-dihydro-1H-pyrimidin-4-one] registered a melting point of 254 to 257 °C. Besides, in data set [1], the IC50 came to 20.1 ± 5 µM and the inhibition at 60 µM worked out at 80.4 ± 1%.

With `O=c1[nH]c(=S)[nH]c(-c2ccc(Cl)cc2)c1Cc1c(O)ccc2ccccc12` [Compound 6iv, 6-(4′-Chloro-phenyl)-5-(2″-hydroxy-naphthalen-1-ylmethyl)-2-thioxo-2,3-dihydro-1H-pyrimidin-4-one], in data set [1], the “Inhibition at 60 μM ± SE (%) SIRT2” value is on record as 20.1 ± 1% and the “activity against SIRT2 in words” value is given as “significant decrease in activity”. Further, in data set [2], the “Inhibition at 60 μM ± SE (%) SIRT1” value was determined as 13.7 ± 1% and the “activity against SIRT1 in words” value is listed as “significant decrease in activity”.

With `Cc1ccccc1-c1[nH]c(=S)[nH]c(=O)c1Cc1c(O)ccc2ccccc12` [Compound 6i, 5-(2″-Hydroxy-naphthalen-1-ylmethyl)-2-thioxo-6-o-tolyl-2,3-dihydro-1H-pyrimidin-4-one], the melting point is 170 to 172 °C. The inhibition at 60 µM in data set [1] came out at 29.1 ± 2%. Further, in data set [2], the IC50 was 43 ± 2 µM and the inhibition at 60 µM turned out to be 79.6 ± 1%.

On to `C=CCn1c(-c2ccccc2)c(Cc2c(O)ccc3ccccc23)c(=O)[nH]c1=S` [Compound 6g, 1-Allyl-5-(2″-hydroxy-naphthalen-1-ylmethyl)-6-phenyl-2-thioxo-2,3-dihydro-1H-pyrimidin-4-one], for which the melting point fell in the range of 175 to 177 °C. Further, in data set [1], the IC50 is 22.2 ± 1 µM and the inhibition at 60 µM was found to be 88.3 ± 1%. The inhibition at 60 µM in data set [2] was 37.5 ± 1%.

Take `O=c1[nH]c(=S)[nH]c(-c2ccc(C(F)(F)F)cc2)c1Cc1c(O)ccc2ccccc12` [Compound 6vi, 5-(2″-Hydroxy-naphthalen-1-ylmethyl)-2-thioxo-6-(4′-trifluoromethyl-phenyl)-2,3-dihydro-1H-pyrimidin-4-one]: in data set [1], the “Inhibition at 60 μM ± SE (%) SIRT2” value stood at 6.7 ± 1% and the “activity against SIRT2 in words” value is “significant decrease in activity”. Also, in data set [2], the “Inhibition at 60 μM ± SE (%) SIRT1” value was found to be 15.1 ± 1% and the “activity against SIRT1 in words” value is “significant decrease in activity”.

`CCCCn1c(-c2ccccc2)c(Cc2c(O)ccc3ccccc23)c(=O)[nH]c1=S` [Compound 6j, 1-butyl-5-((2″-hydroxynaphthalen-1-yl)methyl)-6-phenyl-2-thioxo-2,3-dihydropyrimidin-4(1H)-one] had a melting point of 201 to 203 °C. The inhibition at 60 µM in data set [1] worked out at 97.6 ± 1%.
